pEC50: −log10 of the molar value. Where two headings read alike, the source gives them in different places.

The nature of series [1]: Liver S9 stability determination. The format is in vitro ADME. The conditions noted are these: human liver S9 fraction, 1 μM compound, 37° C., up to 120 mins, read-out: liver S9 t1/2. The text has this: The liver is the main organ of metabolism and contains a high concentration of drug metabolizing enzymes. Metabolic clearance, particularly hepatic, is one of the main determinants affecting systemic drug exposure following both oral and i.v. administration. To assess the ability of the compounds of the invention to reach a systemic circulation, the hepatic S9 fraction was chosen to test for stability of the compounds. Hepatic S9 fraction was obtained following centrifugation of homogenized liver tissue at 9,000 g. The hepatic S9 fraction is composed of both microsomal and cytosolic fractions and contains all the enzymes contained in microsomes plus additional phase I and phase II cytosolic enzymes.
Stock solutions of each tested compound (100 μM) were prepared in methanol by two subsequent 1:10 dilutions from 10 mM DMSO drug solutions, the final assay concentration was 1 μM. Frozen pooled liver S9 fraction was thawed from −20° C. and diluted in phosphate buffer (with and without NADPH) which was pre-warmed at 37° C. for 10 minutes. The reaction was initiated by addition of compound. Manual sample plates were incubated on a Thermo Max Q 2000 shaker placed in a temperature controlled Sartorius Certomat H hood set at 37° C. Sequential samples were removed at designated timepoints (0, 5, 15, 30, 60 and 120 mins) and quenched with 4 volumes of ice cold acetonitrile (containing internal standard, diazepam), centrifuged and supernatants reconstituted in water (acetonitrile:water, 50:50% v/v). Samples were then analyzed by LCMS/MS or LC-UV to assess parent depletion. In vitro half-life (t1/2) is calculated based on the rate of disappearance of compound from the reaction mixture at incubation timepoints up to 2 hours.

Series [2] is described as follows: CCK8 cytotoxicity assay in HepG2 cells. The format is cell-based. To be noted: human, CCK-8. On the procedure: HepG2 cells were trypsinized, washed, counted and diluted to 1.6×10^4 cells/ml in DMEM-W/O Glucose, supplemented with 10% Fetal bovine serum (FBS), 1% Penicillin/Streptomycin, 2 mM HEPES, 1 mM Sodium Pyruvate, 10 mM Galactose & 2 mM Glutamine. 25 μl of the media containing 400 cells per well were dispensed in clear 384-well tissue culture plate and incubated at room temperature for 30 minutes. The plate was then transferred and placed at 37° C., 5% CO2 humidified incubator overnight. On the next day, serial-diluted compound plates were prepared and 125 nl of compounds at various concentrations were then dispensed into the tissue culture well (200× dilution). The plates were then transferred to 37° C., 5% CO2 humidified incubator for additional 96 hours. Cytotoxicity was measured by CCK-8 assay. Briefly, CCK-8 was thawed on bench top and diluted 2.5× with the growth media. 35 ul of the pre-diluted CCK-8 was then introduced into each well and the plates were then further incubated in 37° C., 5% CO2 humidified incubator for 3 hours. The absorbance was read by Envision at 450 nm. Dose response curves were calculated as in the previous section. The CC50 is estimated as the concentration of the compound which will inhibit 50% of the signal. A positive control (puromycin) was used to ensure the quality of the data.
(In general: Tetrazolium dyes change colour on reduction, which living cells bring about.)

For a further series, the system named is dengue virus. Briefly: Dengue EC50 determination: PBMC infected with virus/humanized 4G2 antibody complex, plaque reduction assay using BHK cells. The conditions noted are these: M.O.I of 1, 48 hours, plaque reduction in BHK cells. The format is cell-based. The method, then:
Cryopreserved PBMC (Peripheral Blood Mononuclear Cell) cells were purchased from AllCells, LLC in USA. The cells were then thawed according to manufacturer's instructions and re-suspended in RPMI medium supplemented with 1% penicillin/streptomycin solution and 10% Fetal Calf serum. The cells were then counted and viability checked (viability should be at least 80%). After centrifuging and removing the media, the cells were diluted to 1×10^7 cells/mL in RPMI medium supplemented with 1% penicillin/streptomycin. 50 μl of the cells were then dispensed into 96-well tissue culture plate resulting in 5×10^5 cells/well. Next, virus with humanized 4G2 mixture was prepared for infection. Briefly, virus (2×10^7 pfu/ml) was mixed with humanized 4G2 antibody with the final antibody concentration of 0.38 μg/ml and incubated for 30 minutes at 4° C. to assist virus/antibody complex formation. The virus-antibody complex was then added to the PBMC at multiplicity of infection (M.O.I) of 1. The mixture of cells, virus and antibody was then further incubated in the plates at 37° C. for an hour in the humidified incubator for virus attachment and infection to take place. Serial diluted compounds were then added to the final media volume of 200 μl with 2% Fetal Calf Serum (final PBMC concentration would be 2.5×10^6 cells/mL). The plates were then incubated at 37° C., 5% CO2 for another 48 hours. The extent of the infection and compound inhibition was measured by plaque reduction assay using BHK cells [RD-2004-80036]. Briefly, supernatants of BHK cells grown in 24-well tissue culture (seeded at 200,000 cells/well the night before) were removed and subjected to 200 μl of diluted supernatants derived from PBMC infection containing serial diluted compounds. After incubating it for 37° C. for 1 hour in the incubator, the supernatants were removed and BHK cells overlaid with RPMI media containing 0.8% methyl-cellulose, 0.5% DMSO, 0.05% sodium bicarbonate, 25 mM HEPES, 2% fetal bovine serum and 1% penicillin/streptomycin solution. After additional 4 days of incubation at 37° C. incubator, the monolayer of BHK cells were fixed with 4% paraformaldehyde, stained with crystal violet and plaques counted. The dose response (n=2) is calculated by Prism from Graphpad software using a mathematical curve fitting analysis called nonlinear regression with four independent parameters. Briefly, the software generates the best fit curve using the formula F(x)=((A−D)/(1+((x/C)̂B)))+D. In this formula, x represents the concentration of the compound, A is the minimum value, B represents the steepness of the curve (sometimes known as Hill slope), C is the inflection point and D is the maximum value. EC50 was estimated as the concentration of the compound which will inhibit 50% of the plaque formation. A positive control (7-deaza-2′-C-acetylene-adenosine) was used to ensure the quality of the data.
(In general: Plaque reduction counts the foci of infection that form in a cell layer.)

Series [3] in a line: CCK8 cytotoxicity assay in THP-1 cells. To be noted: human, CCK-8. It counts as cell-based. On the procedure: 4 day cytotoxicity assay using THP-1 cells: THP-1 cells grown in suspension were counted and diluted to 8×10^4 cells/ml in RPMI-1640 media supplemented with 10% fetal bovine serum (FBS) and 1% penicillin/streptomycin. 25 ul of the THP-1 containing media consisting of 2000 cells were dispensed in 384-well tissue culture plate and pre-incubated at room temperature for 30 minutes, followed by 37° C., 5% CO2 overnight in the humidified incubator. On the next day, serial-diluted compound plates were prepared and 125 nl of compounds at various concentrations were then dispensed into the tissue culture well (200× dilution). The plates were then transferred to 37° C., 5% CO2 humidified incubator for additional 96 hours. Cytotoxicity was measured by CCK-8 assay. Briefly, CCK-8 was thawed on bench top and diluted 2.5× with the growth media. 35 ul of the pre-diluted CCK-8 was then introduced into each well and the plates were then further incubated in 37° C., 5% CO2 humidified incubator for 3 hours. The absorbance was read by Envision at 450 nm. Dose response curves were calculated as in the previous section (n=2). The CC50 is estimated as the concentration of the compound which will inhibit 50% of the signal. A positive control (puromycin) was used to ensure the quality of the data.

Series [4] can be described thus: Bulk-state stability and thermal conversion of crystalline forms. The format is physicochemical. To be noted: heated at approximate 142° C.
Series [5] in a line: Stability in liver microsomes. The format is in vitro ADME. To be noted: human, read-out: liver microsomes t1/2. In general terms: Liver microsomes are a subcellular fraction often used to study metabolism.

As usually defined, the CC50 is the concentration at which the toxic effect on the cells reaches its halfway point. As usually defined, the pEC50 is the negative decadic logarithm of the EC50, by convention in mol/L. Read a high pEC50 as a low EC50. As to `CCOC(=O)[C@@H](N[P@]1(=O)OC[C@H]2O[C@@H](n3cnc4c(OCC)nc(N)nc43)[C@](C)(F)[C@@H]2O1)C(C)C` [Example 11, (S)-ethyl 2-(((2S,4aR,6R,7R,7aR)-6-(2-amino-6-ethoxy-9H-purin-9-yl)-7-fluoro-7-methyl-2-oxidotetrahydro-4H-furo[3,2-d][1,3,2]dioxaphosphinin-2-yl)amino)-3-methylbutanoate], the half-life at 1 μM in series [1] (pooled liver S9 fraction) is 82 min. Also, the CC50 at 96 h in series [2] and in series [3] was over 50 µM in each case. In the series with dengue virus, the pEC50 is 6.64.

For the compound `CCCOc1nc(N)nc2c1ncn2[C@@H]1O[C@@H]2CO[P@](=O)(N[C@@H](C)C(=O)OC)O[C@H]2[C@@]1(C)F` [Example 14, (S)-methyl 2-(((2R,4aR,6R,7R,7aR)-6-(2-amino-6-propoxy-9H-purin-9-yl)-7-fluoro-7-methyl-2-oxidotetrahydro-4H-furo[3,2-d][1,3,2]dioxaphosphinin-2-yl)amino)propanoate], the CC50 at 96 h in series [2] and in series [3] was over 50 µM throughout. The compound also had a pEC50 in the series on dengue virus of 6.74.

In turn, `CCOC(=O)[C@H](C)N[P@@]1(=O)OC[C@H]2O[C@@H](n3ccc(=O)[nH]c3=O)[C@](C)(F)[C@@H]2O1` [Comparative Example 2, (S)-ethyl 2-(((2R,4aR,6R,7R,7aR)-6-(2,4-dioxo-3,4-dihydropyrimidin-1(2H)-yl)-7-fluoro-7-methyl-2-oxidotetrahydro-4H-furo[3,2-d][1,3,2]dioxaphosphinin-2-yl)amino)propanoate, reference compound] had a pEC50 in the series on dengue virus of under 4.60.

With `CCOC(=O)[C@H](C)N[P@@]1(=O)OC[C@H]2O[C@@H](n3cnc4c(OCC)nc(N)nc43)[C@](C)(F)[C@@H]2O1` [Form III, (S)-ethyl 2-(((2R,4aR,6R,7R,7aR)-6-(2-amino-6-ethoxy-9H-purin-9-yl)-7-fluoro-7-methyl-2-oxidotetrahydro-4H-furo[3,2-d][1,3,2]dioxaphosphinin-2-yl)amino)propanoate], the “form conversion on heating” value in series [4] was “converts to Form II crystalline form”.

On to `COC(=O)[C@H](C)N[P@@]1(=O)OC[C@H]2O[C@@H](n3cnc4c(OC(C)C)nc(N)nc43)[C@](C)(F)[C@@H]2O1` [Example 12, (S)-methyl 2-(((2R,4aR,6R,7R,7aR)-6-(2-amino-6-isopropoxy-9H-purin-9-yl)-7-fluoro-7-methyl-2-oxidotetrahydro-4H-furo[3,2-d][1,3,2]dioxaphosphinin-2-yl)amino)propanoate], for which the CC50 at 96 h in series [2] and in series [3] was over 50 µM each time. The compound also had a pEC50 in the series on dengue virus of 6.37.

For the compound `COc1nc(N)nc2c1ncn2[C@@H]1O[C@H](CO[P@@](=O)(N[C@@H](C)C(=O)OC(C)C)Oc2ccccc2)[C@@H](O)[C@@]1(C)F` [Comparative Example 4, (S)-isopropyl 2-(((S)-(((2R,3R,4R,5R)-5-(2-amino-6-methoxy-9H-purin-9-yl)-4-fluoro-3-hydroxy-4-methyltetrahydrofuran-2-yl)methoxy) (phenoxy)phosphoryl)amino)propanoate, reference compound], the half-life at 1 μM in series [1] stood at 18 min. Further, in series [5], the half-life was determined as 6 min.

In the case of `CCOc1nc(N)nc2c1ncn2[C@@H]1O[C@@H]2CO[P@](=O)(NCC(=O)OC(C)C)O[C@H]2[C@@]1(C)F` [Example 8, isopropyl 2-(((2R,4aR,6R,7R,7aR)-6-(2-amino-6-ethoxy-9H-purin-9-yl)-7-fluoro-7-methyl-2-oxidotetrahydro-4H-furo[3,2-d][1,3,2]dioxaphosphinin-2-yl)amino)acetate], in series [1] (pooled liver S9 fraction), the half-life at 1 μM was found to be 57.5 min. The CC50 at 96 h in series [2] and in series [3] was over 50 µM throughout. Further, the pEC50 with dengue virus is 6.48.

With `CCOc1nc(N)nc2c1ncn2[C@@H]1O[C@@H]2CO[P@@](=O)(OC(C)C)O[C@H]2[C@@]1(C)F` [Comparative Example 3, (2S,4aR,6R,7R,7aR)-6-(2-amino-6-ethoxy-9H-purin-9-yl)-7-fluoro-2-isopropoxy-7-methyltetrahydro-4H-furo[3,2-d][1,3,2]dioxaphosphinine 2-oxide, reference compound], the pEC50 in the series on dengue virus was under 4.60.

Compound `CCOC(=O)[C@H](C)N[P@@]1(=O)OC[C@H]2O[C@@H](n3cnc4c(N)nc(N)nc43)[C@](C)(F)[C@@H]2O1` [Comparative Example 1, (S)-Ethyl 2-(((2R,4aR,6R,7R,7aR)-6-(2,6-diamino-9H-purin-9-yl)-7-fluoro-7-methyl-2-oxidotetrahydro-4H-furo[3,2-d][1,3,2]dioxaphosphinin-2-yl)amino)propanoate, reference compound] had a pEC50 in the series with dengue virus of under 4.60.

For the origin of these results see patent US20140205566A1, “CYCLIC NUCLEUOSIDE DERIVATIVES AND USES THEREOF” (NOVARTIS AG, priority 2012, published 2014).
